Results as given in patent US10179777B2, “3-(1H-benzimidazol-2-yl)-1H-pyridin-2-one derivatives” (MERCK PATENT GMBH, priority 2015, dated 2019).
Where a name gives a salt, the structure may show the parent alone.

What was measured:
[1] = molecular target: T1, ALK5 (TGFβR1; GST-modified TGFBR1 (200-503)) (Homo sapiens, UniProt P36897); experiment: ALK5 kinase inhibition assay (33P-ATP filter binding, Reaction Biology); type: biochemical; conditions: casein substrate, 200 μM ATP
T1 construct: Using GST-Modified TGFBR1 (200-503); GST
T1 sequence (P36897 200-503): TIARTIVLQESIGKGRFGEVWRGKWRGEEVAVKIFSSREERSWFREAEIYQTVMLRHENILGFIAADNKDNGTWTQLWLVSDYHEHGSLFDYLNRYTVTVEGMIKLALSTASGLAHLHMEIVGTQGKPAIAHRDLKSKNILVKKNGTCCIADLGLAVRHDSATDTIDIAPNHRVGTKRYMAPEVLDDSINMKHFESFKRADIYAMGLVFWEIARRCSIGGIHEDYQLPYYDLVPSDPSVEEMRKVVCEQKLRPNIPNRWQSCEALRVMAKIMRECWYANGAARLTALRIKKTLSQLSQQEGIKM
Experimental: (§1) The protein sequences of the kinases targeted and accompanying information are described in publically available data base http://www.uniprot.org/uniprot/for ALK1 www.uniprot.org/uniprot/P37023, for ALK2 www.uniprot.org/uniprot/Q04771 and for ALK5 www.uniprot.org/uniprot/P36897. IC50 determination of the novel inhibitors described was performed at Reaction Biology Corp., Malvern, Pa., USA, with assay conditions open to public at www.reactionbiology.com/webapps/site/KinaseDetail.aspx?page=Kinases&id=1, and www.reactionbiology.com/webapps/site/Kinase Assay Protocol.aspx. In addition, they were specified previously in Anastassiadis et al. Nat. Biotechnol. 29(11): 1039-1045. doi:10.1038/nbt.2017.
A3) ALK5 Kinase Inhibition Assay Was Performed Similar to Procedures A1 and A2 Using GST-Modified TGFBR1 (200-503) and 1 mg/ml Casein as Substrate at 200 μM ATP.

[2] = tested on: ALK1-mediated SMAD1/5 phosphorylation in HUVEC cells; experiment: Cell-based immunofluorescence assay for ALK1-mediated SMAD1/5 phosphorylation in HUVEC cells; conditions: Homo sapiens, 1.5 ng/ml BMP-9 with compound for 2 h, % nuclei with pSMAD1/5 signal, read-out: Smad 1/5 IC50
From the text: In vitro cell-based Immunofluorescence-Assay for identification of inhibitors of ALK1-mediated SMAD1/5 phosphorylation in HUVEC cells:
ALK1 is a type I cell-surface receptor for the TGF-β superfamily of ligands. In adults ALK1 is mainly expressed on activated endothelial cells, e.g. during wound healing or in tumor angiogenesis. BMP9 and BMP10 are high affinity ligands for ALK1.
BMP9 and BMP10 binding leads to the phosphorylation of so-called Smad1 at Ser463 and Ser465 in the carboxy-terminal motif SSXS, as well as Smad5 and Smad8 at their corresponding sites. These phosphorylated Smads dimerize with the coactivating Smad4 and translocate to the nucleus, where they stimulate transcription of target genes.
Primary endothelial cells (HUVEC: Human Umbilical Vein Endothelial Cells; supplier Promocell) are cultivated in the culture medium obtained from Promocell (with supplements corresponding to 5% FCS) for maximum 5 passages, seeded into black 384-well culture plates with clear bottom (3000 cells/well/30 μl), and incubated for 16-24 hours at 37° C., 5% CO2 and 90% rH.
The following day cells were serum-starved for 2-3 h in order to stop TGF-ß-mediated signalling derived from ligands present in FBS. 1.5 ng/ml BMP-9 was than added in parallel with test compounds for 2 h at 37° C., 5% CO2 in order to identify compounds which block functional activity of ALK1 leading to phosphorylation and nuclear translocation of SMAD1/5/8.
After fixation (15 min 4% Formaldehyd in PBS) and permeabilization (10 min 0.2% Triton X-100 in PBS) an indirect immunocytochemical staining is performed with a specific Phospho-Smad1/5 (Ser463/465) antibody (Cell Signaling #9516) and Alexa488-labelled secondary anti-rabbit-IgG-antibody. DNA staining with Propidium Iodide allowed parallel cell counting. Image acquisition and analysis was performed on an MDS ImageXpress Ultra confocal High Content Reader using the image analysis software MetaXpress. Final read-out were % nuclei with a pSMAD1/5 signal above a defined background.
The final DMSO concentration in the assay was 0.5%. DMSO-treated HUVEC cells served as neutral control (=0%) and cells treated with 10 μM of a reference inhibitor described in a patent served as inhibitor control (=−100%). Raw data were normalised to the neutral and inhibitory references. The assay was performed as dose response (10 compound dilutions, 1 nM-30 μM).

[3] = molecular target: T2, ALK2 (GST-modified kinase domain ACVR1(145-509)) (Homo sapiens, UniProt Q04771); experiment: ALK2 kinase inhibition assay (33P-ATP filter binding, Reaction Biology); type: biochemical; conditions: casein substrate, 20 μM ATP (Km ATP), 120 min ambient temperature
T2 construct: N-terminally GST-modified kinase domain ACVR1(145-509); GST (N)
T2 sequence (Q04771 145-509): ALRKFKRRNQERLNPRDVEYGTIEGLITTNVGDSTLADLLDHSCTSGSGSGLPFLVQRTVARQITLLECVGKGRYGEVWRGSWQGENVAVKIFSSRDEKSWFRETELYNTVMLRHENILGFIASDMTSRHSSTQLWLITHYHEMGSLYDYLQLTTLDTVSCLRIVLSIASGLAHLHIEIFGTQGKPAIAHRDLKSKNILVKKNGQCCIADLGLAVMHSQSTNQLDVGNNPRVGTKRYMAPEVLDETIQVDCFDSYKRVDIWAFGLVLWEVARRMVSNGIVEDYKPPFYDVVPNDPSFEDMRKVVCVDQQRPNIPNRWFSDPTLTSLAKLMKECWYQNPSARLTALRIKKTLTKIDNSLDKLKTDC
Experimental: as §1
A2) ALK2 Kinase Inhibition Assay
(§2) was performed similar to procedure A1 with N-terminally GST-modified kinase domain ACVR1(145-509) and 1 mg/ml Casein as substrate in reaction buffer of 20 mM HEPES pH 7.5, 10 mM MgCl2, 1 mM EGTA, 0.02% Brij, 0.02 mg/ml BSA, 0.1 mM Na3VO4, 2 mM DTT, 1% DMSO. […] Reactions were carried out at ambient temperature for 120 min, followed by spotting of the reactions onto P81 ion exchange filter paper (Whatman Inc., Picataway, N.J., USA). Unbound phosphate was removed by extensive washing of filters in 0.75% phosphoric acid. After subtraction of background derived from control reactions without enzyme activity, kinase activity data was expressed as the percent remaining kinase activity in test samples compared to vehicle (DMSO) reactions. IC50 values and curve fits were obtained using Prism (GraphPad Software).

[4] = molecular target: T3, ALK1 (GST-modified kinase domain ACVRL1 (139-503)) (Homo sapiens, UniProt P37023); experiment: ALK1 kinase inhibition assay (33P-ATP filter binding, Reaction Biology); type: biochemical; conditions: casein substrate, 100 μM ATP (Km ATP), 120 min ambient temperature
T3 construct: N-terminally GST-modified kinase domain ACVRL1 (139-503); GST (N)
T3 sequence (P37023 139-503): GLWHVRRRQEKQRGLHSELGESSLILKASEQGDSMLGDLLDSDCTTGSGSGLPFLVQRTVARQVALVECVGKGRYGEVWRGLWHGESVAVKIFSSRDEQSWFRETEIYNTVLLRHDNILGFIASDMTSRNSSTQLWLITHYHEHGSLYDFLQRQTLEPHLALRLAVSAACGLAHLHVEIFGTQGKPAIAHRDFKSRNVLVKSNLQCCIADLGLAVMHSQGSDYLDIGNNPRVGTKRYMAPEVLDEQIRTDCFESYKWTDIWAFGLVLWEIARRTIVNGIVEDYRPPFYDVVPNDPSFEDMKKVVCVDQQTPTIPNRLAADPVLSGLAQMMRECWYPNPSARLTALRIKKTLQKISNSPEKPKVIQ
Experimental: as §1
A1) ALK1 Kinase Inhibition Assay
as §2, with “performed” for “performed similar to procedure A1”, “domain ACVRL1 (139-503)” for “domain ACVR1(145-509)”, “and 20” for “and 1”

IC50 [1] [nM] | IC50 [3] [nM] | IC50 [4] [nM] | Compound | IC50 [2] [nM]
970 | 1 | 1 | O=c1[nH]cc(-c2cccc(CO)c2)cc1-c1nc2cc(N3CCNCC3)ccc2[nH]1 [Compound A13, 5-(3-Hydroxymethyl-phenyl)-3-(5-piperazin-1-yl-1H-benzimidazol-2-yl)-1H-pyridin-2-one dihydrochloride] | 400
2400 | 8 | 6 | O=c1[nH]cc(-c2ccc(CO)cc2)cc1-c1nc2cc(N3CCNCC3)ccc2[nH]1 [Compound A16, 5-(4-Hydroxymethyl-phenyl)-3-(5-piperazin-1-yl-1H-benzimidazol-2-yl)-1H-pyridin-2-one] | 590
3300 | 25 | 27 | O=c1[nH]cc(-c2cccc(CO)c2)cc1-c1nc2cc(N3CCCNCC3)ccc2[nH]1 [Compound A17, 3-(5-[1,4]Diazepan-1-yl-1H-benzimidazol-2-yl)-5-(3-hydroxymethyl-phenyl)-1H-pyridin-2-one] | 2500
4400 | 19 | 24 | O=c1[nH]cc(-c2ccc(F)c(CO)c2)cc1-c1nc2cc(N3CCNCC3)ccc2[nH]1 [Compound A20, 5-(4-Fluoro-3-hydroxymethyl-phenyl)-3-(5-piperazin-1-yl-1H-benzimidazol-2-yl)-1H-pyridin-2-one] | 7800
5100 | 23 | 8.6 | O=c1[nH]cc(-c2cc(F)c(CO)c(F)c2)cc1-c1nc2cc(N3CCNCC3)ccc2[nH]1 [Compound A21, 5-(3,5-Difluoro-4-hydroxymethyl-phenyl)-3-(5-piperazin-1-yl-1H-benzimidazol-2-yl)-1H-pyridin-2-one dihydrochloride] | 6100
2100 | 16 | 3.5 | O=c1[nH]cc(-c2cc(CO)ccc2Cl)cc1-c1nc2cc(N3CCNCC3)ccc2[nH]1 [Compound A22, 5-(2-Chloro-5-hydroxymethyl-phenyl)-3-(5-piperazin-1-yl-1H-benzimidazol-2-yl)-1H-pyridin-2-one dihydrochloride] | 3300
1600 | 22 | 2 | O=c1[nH]cc(-c2cccc(CO)c2F)cc1-c1nc2cc(N3CCNCC3)ccc2[nH]1 [Compound A23, 5-(2-Fluoro-3-hydroxymethyl-phenyl)-3-(5-piperazin-1-yl-1H-benzimidazol-2-yl)-1H-pyridin-2-one] | 130
1900 | 31 | 5 | NC1CCN(c2ccc3[nH]c(-c4cc(-c5cccc(CO)c5)c[nH]c4=O)nc3c2)CC1 [Compound A26, 3-[5-(4-Amino-piperidin-1-yl)-1H-benzimidazol-2-yl]-5-(3-hydroxymethyl-phenyl)-1H-pyridin-2-one dihydrochloride] | 1800
1700 | 12 | 13 | CN1CCN(c2ccc3[nH]c(-c4cc(-c5cccc(CO)c5)c[nH]c4=O)nc3c2)CC1 [Compound A27, 5-(3-Hydroxymethyl-phenyl)-3-[5-(4-methyl-piperazin-1-yl)-1H-benzimidazol-2-yl]-1H-pyridin-2-one] | 450
1700 | 63 | 92 | CN1CCN(c2ccc3[nH]c(-c4cc(-c5ccnc6ccccc56)c[nH]c4=O)nc3c2)CC1 [Compound A29, 3-[5-(4-Methyl-piperazin-1-yl)-1H-benzimidazol-2-yl]-5-quinolin-4-yl-1H-pyridin-2-one] | 3700
1900 | 11 | 14 | CN1CCCN(c2ccc3[nH]c(-c4cc(-c5cccc(CO)c5)c[nH]c4=O)nc3c2)CC1 [Compound A33, 5-(3-Hydroxymethyl-phenyl)-3-[5-(4-methyl-[1,4]diazepan-1-yl)-1H-benzimidazol-2-yl]-1H-pyridin-2-one] | 900
4800 | 20 | 30 | CN1CCN(c2ccc3[nH]c(-c4cc(-c5ccc(F)c(CO)c5)c[nH]c4=O)nc3c2)CC1 [Compound A34, 5-(4-Fluoro-3-hydroxymethyl-phenyl)-3-[5-(4-methyl-piperazin-1-yl)-1H-benzimidazol-2-yl]-1H-pyridin-2-one] | 2000
